The results in this text go back to patent publication US20100279984A1, “PHARMACEUTICAL COMPOSITIONS CONTAINING BENFOTIAMINE AND ONE OR ONE MORE PHARMACEUTICALLY ACTIVE AGENTS FOR THE TREATMENT OF PAIN CONDITIONS OF NEUROPATHIC ORIGIN” (Merck Patent GmbH, priority 2007, published 2010).

Data set [1] relates to tactile allodynia induced by ligation of L5 and L6 spinal nerves. Briefly: Antiallodynic activity: tactile allodynia (von Frey paw withdrawal threshold) in L5/L6 spinal nerve ligated rats (Kim and Chung model). It is filed as in vivo, female Wistar rats. The note with it: for ED30 (dose producing 30% of antiallodynia): drug alone, 60 min before threshold evaluation, ±SEM; for ED30 (dose producing 30% of antiallodynia) / reduction of tactile allodynia (in words): spinal nerve ligated rats; for reduction of tactile allodynia (in words): P<0.05. The method, then: The purpose of this study was to assess the possible synergistic interaction between gabapentin and benfotiamine in a neuropathic pain model in the rat (Kim, S. H. and Chung, J. M.: Pain 50: 355-363 (1992)). In addition, the possible synergistic interaction between gabapentin and benfotiamine was also assessed in rats with neuropathic pain. Neuropathic pain was induced by ligation of the left L5 and L6 spinal nerves of female Wistar rats. Tactile allodynia was determined by measuring paw withdrawal in response to probing with a series of calibrated von Frey filaments.
Female Wistar rats aged 6-7 weeks (weight range, 120-140 g) from our own breeding facilities were used in this study. Animals had free access to food and drinking water before experiments. Efforts were made to minimize animal suffering and to reduce the number of animals used. All experiments followed the Guidelines on Ethical Standards for Investigation of Experimental Pain in Animals (Zimmermann. M.: Pain 16: 109-110 (1983)). Additionally, the study was approved by the Institutional Animal Care and Use Committee (Centro de Investigacion y de Estudios Avanzados del Instituto Politecnico Nacional, Mexico, D.F., Mexico).
Evaluation of antiallodynic activity: Rats were prepared according to the method of Kim and Chung (Kim, S. H. and Chung, J. M.: Pain 50: 355-363 (1992)). Animals were anesthetized with a mixture of ketamine/xylazine (45-12 mg/kg, i.p.). After surgical preparation and exposure of the dorsal vertebral column, the L5 and L6 spinal nerves were exposed and tightly ligated with 6-0 silk suture distal to the dorsal root ganglion. For sham operated rats, the nerves were exposed but not ligated. The incisions were closed, and the animals were allowed to recover for 15 days. […] Tactile allodynia was determined by measuring paw withdrawal in response to probing with a series of calibrated fine filaments (von Frey filaments). The strength of the von Frey stimuli range from 0.4 to 15 g. Withdrawal thresholds were determined by increasing and decreasing stimulus strength eliciting paw withdrawal (Chaplan, S. R., et al.: J. Neurosci Meth. 53: 55-63 (1994)). All nerve-ligated rats were verified to be allodynic (responding to a stimulus of less than 4 g).
(§1) Drugs: Gabapentin was purchased from Research Biochemicals International (Natick, Mass., USA). Benfotiamine was purchased from Sigma. Gabapentin and benfotiamine were dissolved in saline and given at a volume ratio of 4 ml/kg. Study design: Rats received the oral administration of saline or increasing doses of gabapentin (30-300 mg/kg), benfotiamine (75-300 mg/kg) or the combination of gabapentin and benfotiamine 60 min before evaluation of threshold in spinal nerve injured rats. Observer was unaware of the treatment in each animal. Rats in all groups were tested for possible side effects such as reduction of righting, stepping, corneal and pinna reflexes before and after drug treatment.
Data analysis and statistics: Curves were constructed plotting the threshold for paw withdrawal as a function of time. Threshold for paw withdrawal was also expressed as the % of antiallodynia. % antiallodynia was calculated with the following equation: % antiallodynia=((area under the withdrawal theshold against time curve (AUC) of the treatment−AUC saline)/(AUC sham−AUC saline)×100. The dose-response curves were fitted using least-squares linear regression and ED30 and its standard error (SEM) were calculated according to the method described by Tallarida (Tallarida, R. J.: Drug Synergism and Dose-Effect Data Analysis. 1st Ed., New York, Chapman and Hall/CRC, pp 1-72 (2000)).
For evaluation of the interaction between gabapentin and benfotiamine, isobolograms were constructed using ED30 values obtained when the drugs were administered alone or combined. We used ED30 instead of ED50 values because benfotiamine was not able to reach more than 30% of antiallodynia in the model. […]

Data set [2] deals with righting, stepping, corneal and pinna reflexes. Briefly: Side effect testing: righting, stepping, corneal and pinna reflexes before and after drug treatment. In kind it is in vivo, female Wistar rats. The method, then:
as §1

`C/C(=C(\CCOP(=O)(O)O)SC(=O)c1ccccc1)N(C=O)Cc1cnc(C)nc1N` [Benfotiamine]: in data set [1] (oral administration, FIG. 5), the “antiallodynic effect compared with thiamine (in words)” value is given as “higher antiallodynic effect than thiamine”. In data set [1] (oral administration), the “ED30 (dose producing 30% of antiallodynia)” value is 47.4 ± 10 mg/kg and the “reduction of tactile allodynia (in words)” value was “modest dose-dependent reduction”. For the same compound, the “% of antiallodynia reached in the model” value in data set [1] (oral benfotiamine 75-300 mg/kg, reason for using ED30 instead of ED50) was at most 30%. In data set [2] (rat, in vivo, po), the “effect on assessed reflexes (righting, stepping, corneal, pinna)” value was “no evidence of modification of assessed reflexes”.

Regarding `NCC1(CC(=O)O)CCCCC1` [Gabapentin], in data set [1] (oral administration), the “ED30 (dose producing 30% of antiallodynia)” value came to 16.6 ± 2.6 mg/kg and the “reduction of tactile allodynia (in words)” value was “reduced in a dose-dependent manner”. Moreover, the maximal antiallodynic effect in data set [1] (oral, at 300 mg/kg) is 100%. Also, the “effect on assessed reflexes (righting, stepping, corneal, pinna)” value in data set [2] (oral, at the selected doses) was “No reduction in the assessed reflexes”.
